From ChEMBL document CHEMBL1795217, “New vasorelaxant indole alkaloids, villocarines A-D from Uncaria villosa” (Bioorg Med Chem, 2011)
Active and inactive are the calls of the source.

Tests used:
[1] = system: Aorta; test: Vasorelaxant activity in endothelium denuded Wistar rat thoracic aortic rings assessed as inhibition of phenylephrine-induced contraction at 30 uM; assay type: functional, tissue-based
[2] = system: Aorta; test: Vasorelaxant activity in endothelium denuded Wistar rat thoracic aortic rings assessed as inhibition of phenylephrine-induced contraction at 30 uM in presence of Ca2+-free medium pre-incubated with 1 uM phenylephrine abd 1 uM nicardipine
[3] = system: Aorta; test: Vasorelaxant activity in endothelium denuded Wistar rat thoracic aortic rings assessed as inhibition of calcium-induced contraction at 30 uM in presence of Ca2+-free K+-rich medium; assay type: functional, tissue-based
[4] = system: Aorta; test: Vasorelaxant activity in Wistar rat thoracic aortic rings with endothelium assessed as inhibition of phenylephrine-induced contraction at 30 uM measured 10 to 30 mins within compound dosing; assay type: functional, tissue-based

Measured: Activity

C/C=C1/CN2CCc3c([nH]c4ccccc34)[C@H]2C[C@@H]1/C(=C\OC)C(=O)OC
active: [1] | [2] | [3] | [4]
